Source: patent US20220313650A1, “METHODS FOR TREATING NEURODEVELOPMENTAL DISORDERS” (The Broad Institute, Inc., priority 2019, published 2022)
“Also recorded” adds a separate entry of the source.

Legend:
TRN neurons = assay: Spontaneous EPSC recordings from TRN neurons, WT mice; type: cell-based; conditions: LY379268 1 uM, with PTX
Experimental: For conducting slice electrophysiology analysis, whole-cell patch-clamp recordings were performed using horizontal slices for the rebound bursting assays and angled-coronal thalamocortical slices for the synaptic optogenetics experiments (Agmon et al., 1991). 21-35 day old male C57BL6 mice and Ptchd1 Y/− (knockout) mice were used. Animals were transcardially perfused under isoflurane anesthesia with an ice-cold cutting solution (194 mM Sucrose, 30 mM NaCl, 4.5 mM KCl, 1.2 mM NaH2PO4, 10 mM Glucose, 2 mM MgCl2, 0.2 mM CaCl2, and 26 mM NaHCO3). Mice were then decapitated and the brains were carefully dissected out. Both cerebellum and olfactory bulb were removed from the brain and were placed and glued onto the stage of a Leica Vibratome with the ventral surface down and the pial surface towards the blade. 250 micron thick slices containing the TRN were then collected and recovered in regular artificial cerebrospinal fluid (aCSF; 119 mM NaCl, 2.3 mM KCl, 1 mM NaH2PO4; 11 mM Glucose, 1.3 mM MgCl2, 2.5 mM CaCl2), 26 mM NaHCO3) heated to 32° C. for 10 minutes and then at room temperature for at least 1 hr. All buffers were continuously bubbled with 95% O2/5% C02. Slices were then transferred to a submersion recording chamber where they were perfused with aCSF at a rate of 2 ml/min at room temperature. […]

cortico-TRN synapses = assay: Optogenetically evoked EPSCs in patched TRN neurons, cortico-TRN pathway; type: cell-based, mice
Experimental: For conducting slice electrophysiology analysis, whole-cell patch-clamp recordings were performed using horizontal slices for the rebound bursting assays and angled-coronal thalamocortical slices for the synaptic optogenetics experiments (Agmon et al., 1991). 21-35 day old male C57BL6 mice and Ptchd1 Y/− (knockout) mice were used. Animals were transcardially perfused under isoflurane anesthesia with an ice-cold cutting solution (194 mM Sucrose, 30 mM NaCl, 4.5 mM KCl, 1.2 mM NaH2PO4, 10 mM Glucose, 2 mM MgCl2, 0.2 mM CaCl2, and 26 mM NaHCO3). Mice were then decapitated and the brains were carefully dissected out. Both cerebellum and olfactory bulb were removed from the brain and were placed and glued onto the stage of a Leica Vibratome with the ventral surface down and the pial surface towards the blade. 250 micron thick slices containing the TRN were then collected and recovered in regular artificial cerebrospinal fluid (aCSF; 119 mM NaCl, 2.3 mM KCl, 1 mM NaH2PO4; 11 mM Glucose, 1.3 mM MgCl2, 2.5 mM CaCl2), 26 mM NaHCO3) heated to 32° C. for 10 minutes and then at room temperature for at least 1 hr. All buffers were continuously bubbled with 95% O2/5% C02. Slices were then transferred to a submersion recording chamber where they were perfused with aCSF at a rate of 2 ml/min at room temperature. Patch recording pipettes were pulled using a Flaming/Brown micropipette puller (Sutter Instruments) and Borosilicate glass (KG33, King Precision Glass). The DC resistances were ˜4-6 MΩ. Potassium methanesulfonate based internal solution (140 mM KMeSO3; 10 mM KCl; 10 mM HEPES; 0.1 mM EGTA; 4 mM Mg-ATP; 0.2 mM Na-GTP; 10 mM hosphocreatine) was used. Neurons were visualized using infrared differential interference contrast (IR-DIC) microscopy (Olympus, BX51W1) with an upright microscope digital camera.
To study the changes in the acute somatosensory thalamocortical or horizontal brain areas, 21-25 days old Nex-Cre or VgluT2-Cre mice were anesthetized with isoflurane while placed in a small animal stereotaxic apparatus (David Kopf Instruments, CA, USA) and were injected bilaterally with 280 nl of mcherry-dflox.hChR2.EF1.AAV1 using a Nanoject (Drummond Scientific, Broomall, Pa.) via glass pipettes with […] diameter tips in somatosensory cortex (S1) and ventrobasal thalamic complex (VB). Coordinates from the bregma for S1: AP −0.7, ML 2.4 and DV 1.2 and for VB: AP −1.6, ML 1.5 and DV 3.5. The pipette was held in the final position for 10 min after injection before withdrawal from the brain. The incision was closed with vetbond and after surgery mice were injected with analgesics (SR-Bupronex 1 mg/kg) every 72 hours or as needed. […]
After allowing 1-2 weeks for mcherry-dflox.hChR2.EF1.AAV1 expression, acute somatosensory thalamocortical or horizontal brain slices were freshly obtained for in vitro recording and optogenetic stimulation (250 um thick, thalamocortical slices containing TRN from angled-coronal sections; Agmon and Connors, 1991) for optogenetic analysis. In brief, patch clamp recordings in voltage clamp configuration were performed while the Cortico-TRN or Thalamic-TRN pathway was activated by applying a blue LED (400-450 nm) light pulses (Lumen 300-LED Fluorescence Excitation Illumination System). For synaptic stimulation, neurons were held at −70 mV while 0.1-1.5 ms flashes were delivered directly to the recorded cell soma delivered through the 40× water immersion objective. […]

Compound: N[C@@]1(C(=O)O)COC2C(C(=O)O)C21 (stereo in doubt) [LY379268, (1R,4R,5S,6R)-4-Amino-2-oxabicyclo[3.1.0] hexane-4,6-dicarboxylic acid]
- frequency of sEPSCs (TRN neurons): significantly reduced the frequency
- paired-pulse ratio (PPR) (cortico-TRN synapses; cortico-TRN synapses, before vs after bath application): significantly changed as well as the paired-pulse ratio; also recorded: significant changes in the size of paired-pulse ratio (PPR)
- amplitude of optogenetic evoked EPSCs (cortico-TRN synapses; cortico-TRN, 20 Hz, LY379268 1 μM bath application): amplitude was significantly changed
